Source: US20180066327A1, “Methods to Accelerate Wound Healing in Diabetic Subjects” (Joslin Diabetes Center, Inc., priority 2015, published 2018)
Values belong to the molecule of their own block, whether it stands above or below them.

Assays:
Type in all cases: cell-based, human
Medalist fibroblasts [1] = experiment: VEGF protein secreted to the medium (ELISA)
Text: Skin were obtained from 26 Medalists with various complications and from 7 age-matched non-diabetic controls during post-mortem period. Primary fibroblast cultures were derived from human skin samples, sustained in DMEM (10-027, Cellgro Inc.) supplemented with 10% heat inactivated fetal bovine serum, over a period of 4 weeks, in a 6-well plate, with media supplementation every other day. Subsequently, as fibroblasts emerged from the primary explant, a brief trypsinization (0.25% Trypsin) was used to separate and further expand the cells in a 10 cm^2 plate. In all experiments fibroblasts were used between passages 2-5.
(§1) Fibroblasts with passage≦5 were grown and expanded in 10 cm plate with DMEM supplemented with 10% FBS. Cells were stimulated with the conditions and compounds as indicated after overnight starvation in DMEM with 0.1% BSA without FBS. Cells were lysed and protein amounts were measured with BCA kit (Bio-Rad, Hercules, Calif.). Protein lysates (20-30 μg) were separated by SDS-PAGE, transferred, blocked and detected as we described before (Park et al., Mol Cell Biol. 2013 August; 33(16):3227-41). The signal intensity was quantified using ImageJ software (SynGene, Frederick, Md.). For immune precipitation, tissue lysates were incubated with the appropriate antibodies followed by the addition of protein A/G Sepharose beads (Santa Cruz Biotechnology, Inc., Santa Cruz, Calif.). The precipitated proteins were subjected to SDS-PAGE followed by immunoblotting with the appropriate antibodies as described before (Park et al., Mol Cell Biol. 2013 August; 33(16):3227-41).
The transfection of siRNA was performed using the Ambion Silencer Select Validated siRNA kit for primary cells (Ambion by Life Technology, Carlsband, Calif.), in 60-70% confluent fibroblast. For evaluating insulin's effect on VEGF production, cells were washed twice with PBS, and starved overnight with DMEM containing 1% BSA. Insulin (100 nM) was added to each for additional 16 h. After incubation, media were collected for VEGF measurement by ELISA and the cell lysate were collected for measuring protein concentration.
Protein levels of VEGF in the medium were measured using Quantikine R&D System kit (Minneapolis, Minn.). This kit determines mainly VEGF165. Glycated hemoglobin (HbA1c) was determined by HPLC (Tosoh G7 and 2.2, Tokyo, Japan). Serum creatinine was determined by spectrophotometry. Urine albumin and creatinine were determined by turbidimetric methods. Serum C-peptide was determined by RIA (Beckman Coulter, Inc, Fullerton, Calif.).

Medalist fibroblasts [2] = experiment: VEGF protein secreted to the medium (ELISA); conditions: fibroblasts from Medalists compared to controls; 10 ng/ml TGF for 24 hours
Medalist fibroblasts [3] = experiment: Scratch wound migration assay; conditions: 10 ng/ml PDGF-BB or 100 nM insulin for 12 h
Protocol: (§2) Scratch wound migration assay—100% Confluent starved Medalist or control fibroblasts wounded, followed by incubation with 10 ng/ml PDGF-BB or 100 nM insulin for 12 hours. Phase contrast images of wounded areas were taken at time 0, 4, 6, 8 and 12 hours after stimulation, and migration was determined as described before (Ito et al., Am J Physiol Lung Cell Mol Physiol. 2014 Jul. 1; 307(1):L94-105).

control fibroblasts [4] = experiment: Scratch wound migration assay; conditions: 10 ng/ml PDGF-BB or 100 nM insulin for 12 h
Protocol: as §2

Medalist fibroblasts [5] = experiment: p-AKT (Ser473) immunoblot; conditions: for p-AKT increase compared to untreated cells: Medalist fibroblasts, 100 nM insulin or 10 ng/ml PDGF-BB for 10 minutes; for p-AKT increase: 100 nM insulin 10 minutes
Protocol: as §1

control fibroblasts [6] = experiment: p-AKT (Ser473) immunoblot; conditions: for p-AKT increase compared to untreated cells: 100 nM insulin or 10 ng/ml PDGF-BB for 10 minutes
Protocol: as §1

Medalist fibroblasts [7] = experiment: VEGF mRNA by real-time PCR; conditions: fibroblasts from Medalists, 100 nM insulin
Protocol: (§3) Real-time PCR was performed to evaluate mRNA expressions of VEGF, PDGF-B, Fibronectin, and PKCδ in cultured fibroblast and mice granulation tissue as we described before (Geraldes et al., Nat Med. 2009 November; 15(11):1298-306). PCR primers and probes are detailed in Table A. Human 36B4 or 18S ribosomal RNA expressions as indicated were used for normalization.

control fibroblasts [8] = experiment: VEGF mRNA by real-time PCR; conditions: fibroblasts from controls, 100 nM insulin
Protocol: as §3

Medalist fibroblasts [9] = experiment: IRS1 tyrosine phosphorylation immunoblot; conditions: 100 nM insulin
Protocol: as §1

control fibroblasts [10] = experiment: IRS1 tyrosine phosphorylation immunoblot; conditions: fibroblasts of controls, 100 nM insulin
Protocol: as §1

Medalist fibroblasts [11] = experiment: p-Tyr of insulin receptor beta subunit immunoblot; conditions: 100 nM insulin
Protocol: as §1

control fibroblasts [12] = experiment: p-Tyr of insulin receptor beta subunit immunoblot; conditions: controls, 100 nM insulin
Protocol: as §1

control fibroblasts [13] = experiment: VEGF protein secreted to the medium (ELISA)
[14] = fibroblasts of Medalists with CVD
[15] = fibroblasts of Medalists without CVD

Molecule: CN(C)CCCn1cc(C2=C(c3c[nH]c4ccccc34)C(=O)NC2=O)c2ccccc21 [GFX, 2[1-(3-dimethylaminopropyl)-1H-indol-3-yl]-3-(1H-indol-3-yl)-maleimide]
fold increase in VEGF levels above basal (Medalist fibroblasts [1]; Medalist fibroblasts, inhibitor + 100 nM insulin (10 mM GFX or 3 uM rottlerin)): 4.74±0.94 fold
fold increase in VEGF levels above basal (Medalist fibroblasts [1]; Medalist fibroblasts, inhibitor alone, no insulin (10 mM GFX or 3 uM rottlerin)): 2.55±0.43 fold

Molecule: COc1cccc(-c2cc(=O)c3ccccc3o2)c1N [PD98059]
insulin-stimulated VEGF production (Medalist fibroblasts [1]; Medalist fibroblasts, 100 nM insulin in presence of 100 nM wortmanin or 10 μM PD98059): but not PD98059, significantly inhibited

Molecule: CN(C)C[C@@H]1CCn2cc(c3ccccc32)C2=C(C(=O)NC2=O)c2cn(c3ccccc23)CCO1 [RBX, Ruboxistaurin]
insulin stimulated VEGF secretion (Medalist fibroblasts [1]; Medalist fibroblasts, 100 nM insulin with 100 nM RBX): failed to increase

Molecule: CC(=O)c1c(O)c(C)c(O)c(Cc2c(O)c3c(c(C(=O)/C=C/c4ccccc4)c2O)OC(C)(C)C=C3)c1O [rottlerin, Rottlerin]
fold increase in VEGF levels above basal (Medalist fibroblasts [1]; Medalist fibroblasts, inhibitor + 100 nM insulin (GFX or 3 uM rottlerin)): 5.25±0.56 fold
fold increase in VEGF levels above basal (Medalist fibroblasts [1]; Medalist fibroblasts, inhibitor alone, no insulin (GFX or 3 uM rottlerin)): 3.74±0.49 fold

Molecule: TGF-β
VEGF induced by TGF-β (Medalist fibroblasts [2]): blunted

p-Tyr of the insulin receptor beta subunit, increase (Medalist fibroblasts [11]; Medalists with CVD): 4.7 fold
p-Tyr of the insulin receptor beta subunit, increase (Medalist fibroblasts [11]; Medalists without CVD): 4.9 fold
p-Tyr of the insulin receptor beta subunit, increase (control fibroblasts [12]): 5.2 fold
Molecule: insulin
cell migration (Medalist fibroblasts [3]): failed to significantly increase
cell migration (control fibroblasts [4]): 1.7 fold
p-AKT increase compared to untreated cells (Medalist fibroblasts [5]): 2 fold
p-AKT increase (Medalist fibroblasts [5]; [14]): 1.8 fold
p-AKT increase (Medalist fibroblasts [5]; [15]): 2.4 fold
p-AKT increase (control fibroblasts [6]; 100 nM insulin 10 minutes (CVD comparison experiment)): 4.0 fold
p-AKT increase compared to untreated cells (control fibroblasts [6]): 3.6 fold
stimulation of VEGF mRNA production (Medalist fibroblasts [7]): failed to significantly stimulate
increase in VEGF mRNA (control fibroblasts [8]): 2.4 fold
IRS1 tyrosine phosphorylation at site 649 (p-Tyr649), increase (Medalist fibroblasts [9]; [14]): 34%
IRS1 tyrosine phosphorylation at site 911 (p-Tyr911), increase (Medalist fibroblasts [9]; [14]): 26%
IRS1 tyrosine phosphorylation at site 649 (p-Tyr649), increase (Medalist fibroblasts [9]; [15]): 63%
IRS1 tyrosine phosphorylation at site 911 (p-Tyr911), increase (Medalist fibroblasts [9]; [15]): 40%
IRS1 tyrosine phosphorylation at site 649 (p-Tyr649), increase (control fibroblasts [10]): 53%
IRS1 tyrosine phosphorylation at site 911 (p-Tyr911), increase (control fibroblasts [10]): 52%
VEGF secretion, fold increase (Medalist fibroblasts [1]; Ad-GFP infected Medalist fibroblasts, with 100 nM insulin 16 hours): 1.51±0.18 fold
VEGF secretion, fold increase above basal (Medalist fibroblasts [1]; Medalist fibroblasts, insulin alone, siRNA experiment): 1.28±0.10 fold
fold increase in VEGF levels above basal (Medalist fibroblasts [1]; Medalist fibroblasts, 100 nM insulin alone, GFX experiment): 1.59±0.10 fold
fold increase in VEGF levels above basal (Medalist fibroblasts [1]; Medalist fibroblasts, 100 nM insulin alone, rottlerin experiment): 1.50±0.31 fold
VEGF protein levels after insulin stimulation (Medalist fibroblasts [1]; Medalists with CVD (basal 75.5±13.7)): 106.0±12.0 pg/mg protein
VEGF protein levels after insulin stimulation (Medalist fibroblasts [1]; Medalists without CVD (basal 57.5±8.5)): 99.1±8.4 pg/mg protein
stimulation of VEGF protein (Medalist fibroblasts [1]; fibroblasts from Medalists, 100 nM insulin): failed to significantly stimulate
VEGF production, fold (control fibroblasts [13]; Ad-GFP infected control fibroblasts, with 100 nM insulin 16 hours): 2.89±0.67 fold
increase in VEGF protein levels (control fibroblasts [13]; fibroblasts from controls, 100 nM insulin): 66%

B1: PDGF-BB: platelet-derived growth factor, 10 ng/ml stimulus (protein, UniProt P01127 82-190, looked up)
Platelet-derived growth …: SLGSLTIAEPAMIAECKTRTEVFEISRRLIDRTNANFLVWPPCVEVQRCSGCCNNRNVQCRPTQVQLRPVQVRKIEIVRKKPIFKKATVTLEDHLACKCETVAAARPVT
modifications: homodimer BB
notes: platelet-derived growth factor, 10 ng/ml stimulus
cell migration (Medalist fibroblasts [3]): increased cell migration significantly
cell migration (control fibroblasts [4]): increased cell migration significantly
p-AKT increase compared to untreated cells (Medalist fibroblasts [5]): 7 fold
p-AKT increase compared to untreated cells (control fibroblasts [6]): 7 fold
